Experimental data as given in patent US20240101521A1, “DIAMINOTRIAZINE COMPOUNDS” (BASF SE, priority 2021, published 2024).

Tests used:
Assay in all cases: greenhouse pre-emergence herbicidal test
Assay type in all cases: in vivo
Conditions in all cases: scale 0 to 100
[1] = system: Amaranthus retroflexus
Text: (§1) The culture containers used were plastic flowerpots containing loamy sand with approximately 3.0% of humus as the substrate. The seeds of the test plants were sown separately for each species.
(§2) For the pre-emergence treatment, the active ingredients, which had been suspended or emulsified in water, were applied directly after sowing by means of finely distributing nozzles. The containers were irrigated gently to promote germination and growth and subsequently covered with transparent plastic hoods until the plants had rooted. This cover caused uniform germination of the test plants, unless this had been impaired by the active ingredients. For the post-emergence treatment, the test plants were first grown to a height of 3 to 15 cm, depending on the plant habit, and only then treated with the active ingredients which had been suspended or emulsified in water. For this purpose, the test plants were either sown directly and grown in the same containers, or they were first grown separately as seedlings and transplanted into the test containers a few days prior to treatment.
(§3) Depending on the species, the plants were kept at 10-25° C. or 20-35° C., respectively.
(§4) The test period extended over 2 to 4 weeks. During this time, the plants were tended, and their response to the individual treatments was evaluated.
(§5) Evaluation was carried out using a scale from 0 to 100. 100 means no emergence of the plants, or complete destruction of at least the aerial moieties, and 0 means no damage, or normal course of growth. A moderate herbicidal activity is given at values of at least 60, a good herbicidal activity is given at values of at least 70, and a very good herbicidal activity is given at values of at least 85.
(§6) The plants used in the greenhouse experiments were of the following species: […]

[2] = system: Echinochloa crus-galli
Text: as §1, §2, §3, §4, §5, §6

[3] = system: Setaria faberi
Text: as §1, §2, §3, §4, §5, §6

Row | Compound | herbicidal activity ([1]; pre-emergence, 62,5 g/ha) [%] | herbicidal activity ([2]; pre-emergence, 62,5 g/ha) [%] | herbicidal activity ([3]; pre-emergence, 62,5 g/ha) [%] | herbicidal activity ([1]; pre-emergence, 62 g/ha) [%] | herbicidal activity ([2]; pre-emergence, 62 g/ha) [%] | herbicidal activity ([3]; pre-emergence, 62 g/ha) [%] | also measured
1 | CC#CCOc1c(Br)cc(F)c(F)c1Nc1nc(N)nc(C(C)(F)F)n1 [Example 47] | 100 | 100 | 100 |  |  |  | 
2 | COc1c(Cl)ccc(F)c1Nc1nc(N)nc(C(C)(F)F)n1 [Example 48] |  |  |  |  |  |  | herbicidal activity ([1]; pre-emergence, 31 g/ha): 100%; herbicidal activity ([2]; pre-emergence, 31 g/ha): 70%; herbicidal activity ([3]; pre-emergence, 31 g/ha): 100%
3 | C#CCOc1c(C)cc(Br)c(F)c1Nc1nc(N)nc(C(C)(C)F)n1 [Example 67] |  |  |  | 100 | 100 | 100 | 
4 | CCOc1c(Cl)ccc(F)c1Nc1nc(N)nc(C(C)(C)F)n1 [Example 41] | 100 | 100 | 100 |  |  |  | 
5 | CC#CCOc1c(Br)cc(F)c(F)c1Nc1nc(N)nc(C(C)F)n1 (stereo not shown) [Example 90] |  |  |  | 100 | 100 | 100 | 
6 | CCOc1c(Cl)cc(Cl)c(F)c1Nc1nc(N)nc(C(C)(C)F)n1 [Example 83] |  |  |  | 100 | 100 | 100 | 
7 | CCOc1c(Cl)cc(F)c(F)c1Nc1nc(N)nc(C(C)(C)F)n1 [Example 23] | 100 | 100 | 100 |  |  |  | 
8 | COc1c(Cl)cc(F)c(F)c1Nc1nc(N)nc(C(C)F)n1 (stereo not shown) [Example 39] | 100 | 100 | 100 |  |  |  | 
9 | CC#CCOc1c(Cl)ccc(F)c1Nc1nc(N)nc(C(C)(C)F)n1 [Example 42] |  |  |  |  |  |  | herbicidal activity ([1]; pre-emergence, 31 g/ha): 100%; herbicidal activity ([2]; pre-emergence, 31 g/ha): 100%; herbicidal activity ([3]; pre-emergence, 31 g/ha): 100%
10 | C#CCOc1c(Cl)cc(F)c(F)c1Nc1nc(N)nc(C(C)(C)OC)n1 [Example 88] |  |  |  | 100 | 100 | 100 | 
11 | CC#CCOc1c(Br)ccc(F)c1Nc1nc(N)nc(C(C)(C)F)n1 [Example 46] | 100 | 100 | 100 |  |  |  | 
12 | CCOc1c(Cl)cc(F)c(F)c1Nc1nc(N)nc(C2(F)CCCCC2)n1 [Example 110] | 95 | 100 | 85 |  |  |  | 
13 | CC#CCOc1c(Br)cc(C)c(F)c1Nc1nc(N)nc(C(C)(C)F)n1 [Example 75] |  |  |  | 100 | 100 | 100 | 
14 | CC#CCOc1c(Cl)cc(F)c(F)c1Nc1nc(N)nc(C(C)(C)OC)n1 [Example 82] |  |  |  | 100 | 100 | 100 | 
15 | COc1c(C)ccc(F)c1Nc1nc(N)nc(C(C)(C)F)n1 [Example 69] |  |  |  | 100 | 100 | 100 | 
16 | CC#CCOc1c(Cl)cc(F)c(F)c1Nc1nc(N)nc(C(C)F)n1 (stereo not shown) [Example 92] |  |  |  | 100 | 100 | 100 | 
17 | C#CCOc1c(Cl)cc(F)c(F)c1Nc1nc(N)nc(C(C)F)n1 (stereo not shown) [Example 91] |  |  |  | 100 | 100 | 100 | 
18 | CCC#CCOc1c(Br)cc(F)c(F)c1Nc1nc(N)nc(C2(F)CCCC2)n1 [Example 22] | 85 | 85 | 100 |  |  |  | 
19 | C#CCOc1c(Br)cc(F)c(F)c1Nc1nc(N)nc(C(C)F)n1 (stereo not shown) [Example 89] |  |  |  | 100 | 100 | 100 | 
20 | C#CCOc1c(Br)cc(C)c(F)c1Nc1nc(N)nc(C(C)(C)F)n1 [Example 74] |  |  |  | 100 | 100 | 100 | 

Row | Compound | herbicidal activity ([1]; pre-emergence, 62,5 g/ha) [%] | herbicidal activity ([2]; pre-emergence, 62,5 g/ha) [%] | herbicidal activity ([3]; pre-emergence, 62,5 g/ha) [%] | herbicidal activity ([1]; pre-emergence, 62 g/ha) [%] | herbicidal activity ([2]; pre-emergence, 62 g/ha) [%] | herbicidal activity ([3]; pre-emergence, 62 g/ha) [%] | also measured
21 | C#CCOc1c(Cl)cc(F)c(F)c1Nc1nc(N)nc(C(C)(F)CCl)n1 (stereo not shown) [Example 86] |  |  |  | 100 | 100 | 100 | 
22 | CCOc1c(Br)cc(F)c(F)c1Nc1nc(N)nc(C2(F)CCCC2)n1 [Example 21] | 95 | 100 | 100 |  |  |  | 
23 | COc1c(Cl)cc(F)c(F)c1Nc1nc(N)nc(C(F)C2CC2)n1 (stereo not shown) [Example 40] | 100 | 100 | 100 |  |  |  | 
24 | CCOc1c(Br)cc(Br)c(F)c1Nc1nc(N)nc(C(C)(C)F)n1 [Example 66] |  |  |  | 100 | 100 | 100 | 
25 | COc1c(Br)cc(C)c(F)c1Nc1nc(N)nc(C(C)(C)F)n1 [Example 73] |  |  |  | 100 | 100 | 100 | 
26 | C#CCOc1c(C)ccc(F)c1Nc1nc(N)nc(C(C)(C)F)n1 [Example 71] |  |  |  | 100 | 100 | 100 | 
27 | COc1c(Cl)ccc(F)c1Nc1nc(N)nc(C(C)F)n1 (stereo not shown) [Example 43] | 100 | 100 | 100 |  |  |  | 
28 | CC#CCOc1c(C)ccc(F)c1Nc1nc(N)nc(C(C)(C)F)n1 [Example 70] |  |  |  | 100 | 100 | 100 | 
29 | COc1c(Br)ccc(F)c1Nc1nc(N)nc(C(C)F)n1 (stereo not shown) [Example 44] | 100 | 100 | 100 |  |  |  | 
30 | CCC(C)(F)c1nc(N)nc(Nc2c(F)c(Cl)cc(Cl)c2OC)n1 (stereo not shown) [Example 62] |  |  |  |  |  |  | herbicidal activity ([1]; pre-emergence, 31 g/ha): 100%; herbicidal activity ([2]; pre-emergence, 31 g/ha): 100%; herbicidal activity ([3]; pre-emergence, 31 g/ha): 100%
31 | COc1c(Br)cc(Cl)c(F)c1Nc1nc(N)nc(C(C)(C)F)n1 [Example 76] |  |  |  | 100 | 100 | 100 | 
32 | COc1c(Br)ccc(F)c1Nc1nc(N)nc(C2(F)CCCC2)n1 [Example 25] |  |  |  |  |  |  | herbicidal activity ([1]; pre-emergence, 250 g/ha): 100%; herbicidal activity ([2]; pre-emergence, 250 g/ha): 100%; herbicidal activity ([3]; pre-emergence, 250 g/ha): 100%
33 | CC#CCOc1c(Br)cc(Cl)c(F)c1Nc1nc(N)nc(C(C)(C)F)n1 [Example 78] |  |  |  | 100 | 100 | 100 | 
34 | C#CCOc1c(Br)cc(F)c(F)c1Nc1nc(N)nc(C(C)(C)OC)n1 [Example 87] |  |  |  | 100 | 100 | 100 | 
35 | CC(C)(F)c1nc(N)nc(Nc2c(F)c(Cl)cc(Cl)c2OC(F)F)n1 [Example 93] |  |  |  | 100 | 100 | 100 | 
36 | CCC#CCOc1c(Cl)cc(F)c(F)c1Nc1nc(N)nc(C(C)(C)F)n1 [Example 24] | 100 | 100 | 100 |  |  |  | 
37 | CC#CC(C)Oc1c(Br)cc(F)c(F)c1Nc1nc(N)nc(C2(F)CCCC2)n1 (stereo not shown) [Example 96] |  |  |  |  | 70 | 75 | 
38 | COc1c(Cl)cc(F)c(F)c1Nc1nc(N)nc(C(C)Cl)n1 (stereo not shown) [Example 38] | 100 | 100 | 100 |  |  |  | 
39 | CC(C)(F)c1nc(N)nc(Nc2c(F)c(F)cc(Cl)c2OC(F)F)n1 [Example 80] |  |  |  | 100 | 100 | 100 | 
40 | C#CCOc1c(Br)cc(F)c(F)c1Nc1nc(N)nc(C2(F)CCCC2)n1 [Example 27] |  |  |  |  |  |  | herbicidal activity ([1]; pre-emergence, 31 g/ha): 100%; herbicidal activity ([3]; pre-emergence, 31 g/ha): 100%
